# Data published in US10821097B2, “DBH inhibitors for treating or preventing memory loss” (Brandeis University, priority 2015, dated 2020).
# What was measured:
# DBH [1] = conditions: in vivo; cited from earlier work
# DBH [2] = target: T1, DBH (Rattus norvegicus, UniProt Q05754); conditions: cited from earlier work; for blood-brain barrier crossing, indicated by effect of injections on brain dopamine levels: Antabuse 100 mg/kg, Nepicastat 50 mg/kg, intraperitoneal
# T1 construct: In rat studies, Antabuse (100 mg/kg) and Nepicastat (50 mg/kg) were injected intraperitoneally; host or cells: rat, in vivo (endogenous enzyme)
# T1 sequence (Q05754 1-620): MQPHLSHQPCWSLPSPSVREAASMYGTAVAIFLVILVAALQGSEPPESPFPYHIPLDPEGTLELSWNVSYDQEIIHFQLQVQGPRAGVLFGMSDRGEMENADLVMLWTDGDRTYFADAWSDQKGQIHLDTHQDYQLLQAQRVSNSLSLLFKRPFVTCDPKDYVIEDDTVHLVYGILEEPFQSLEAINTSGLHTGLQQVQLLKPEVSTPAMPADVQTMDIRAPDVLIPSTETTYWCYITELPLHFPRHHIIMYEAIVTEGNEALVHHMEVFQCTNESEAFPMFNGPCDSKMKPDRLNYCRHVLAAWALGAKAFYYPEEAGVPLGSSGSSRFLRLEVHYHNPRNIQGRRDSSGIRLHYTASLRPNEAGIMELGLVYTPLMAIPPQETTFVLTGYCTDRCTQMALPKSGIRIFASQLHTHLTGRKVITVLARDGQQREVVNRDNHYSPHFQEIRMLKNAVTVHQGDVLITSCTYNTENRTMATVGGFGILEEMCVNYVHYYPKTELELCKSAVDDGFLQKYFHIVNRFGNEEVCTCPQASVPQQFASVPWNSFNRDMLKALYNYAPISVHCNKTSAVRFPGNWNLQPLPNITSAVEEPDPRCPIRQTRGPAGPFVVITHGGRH
# D1R = experiment: light-stimulated dopamine release from LC axons, fEPSP in CA1 of hippocampal slices; type: cell-based; conditions: 10 uM, n=4, Schaffer collateral stimulation
# From the text: The chemogenetic approach allows the acute memory deficits produced by graded decrease in LC function to be measured. This model then provides a rigorous and rapid screening method to determine whether the resulting memory deficits can be reversed by agents that enhance dopamine release (with or without noradrenaline stimulants). Results in FIG. 2 document the role of LC axons in producing functionally important dopamine release. The experiments were done in CA1 using synaptic stimulation of Schaffer collaterals to measure synaptic strength. FIG. 2, left: brief light stimulation of the hippocampus (arrow) produces a long-lasting enhancement of the fEPSP (normalized increase in charge) (n=5). This light-stimulated release of dopamine replicates the effect of direct application of dopamine (Huang and Kandel, 1995). […] Stimulation protocol: three sets of ˜18 Hz stimulation (5 msec light pulses)=a total of 60 pulses/set; 1 minute between sets. The LC was injected in vivo with AAV virus that produced channel-rhodopsin in cells containing tyrosine hydroxylase, an enzyme in the dopamine and noradrenaline synthesis pathway (see FIG. 1). The selective expression in noradrenergic cells in the LC is due to Cre expression driven by a tyrosine hydroxylase promoter. […] The response of CA1 pyramidal cells was measured by the field EPSP (fEPSP). […]
# [3] = up to 120 mg/day; cited from earlier work
# LC = experiment: event arena memory test in KORD mice with the LC inhibited by SALB; type: in vivo; conditions: SALB subcutaneously 10 minutes before encoding trial
# [4] = IP, suspension in sterile saline
compound,measurement,setting,value
"CCN(CC)C(=S)SSC(=S)N(CC)CC [Disulfiram, 1,1′,1″,1′″-[disulfanediylbis(carbonothioylnitrilo)]tetraethane]",effect on dopamine concentration and/or dopamine release,DBH [1],increase the concentration of dopamine and/or increase dopamine release
same,"blood-brain barrier crossing, indicated by effect of injections on brain dopamine levels",DBH [2],cross the blood-brain barrier
same,highest effective dose that didn't affect operant responses,DBH [2]; [4],100 mg/kg
same,lowest effective concentration,DBH [2]; [4],10 mg/kg
CN1CCc2cc(Cl)c(O)cc2[C@H]2c3ccccc3CC[C@@H]21 [SCH39166],enhancement of the fEPSP by light stimulation of LC axons in the presence of the antagonist,D1R,no enhancement
"NCc1c[nH]c(=S)n1[C@H]1CCc2c(F)cc(F)cc2C1 [Nepicastat, 5-(aminomethyl)-1-[(2S)-5,7-difluoro-1,2,3,4-tetrahydronaphthalen-2-yl]-1,3-dihydro-2H-imidazole-2-thione]",tolerability,[3],well tolerated
same,effect on dopamine concentration and/or dopamine release,DBH [1],increase the concentration of dopamine and/or increase dopamine release
same,"blood-brain barrier crossing, indicated by effect of injections on brain dopamine levels",DBH [2],cross the blood-brain barrier
same,dose reported to match the 100 mg/kg dose of Antabuse on DBH,DBH [2]; IP,50 mg/kg
"COC(=O)[C@@H]1C[C@H](O)C(=O)[C@H]2[C@@]1(C)CC[C@H]1C(=O)O[C@H](c3ccoc3)C[C@]21C [SALB, salvinorin B]",24 hr memory,LC,strongly reduce
